From patent US20150094294A1, “COMPOUNDS AND METHODS FOR TREATING MALARIA” (Cellceutix Corporation, priority 2012, published 2015)
Converted amounts (≈) assume the structure as drawn.

Assays:
Type in all cases: cell-based
HepG2 cells = test: Cytotoxicity against HepG2 cells
3T3 cells = test: Cytotoxicity against 3T3 cells
[1] = system: P. falciparum 3D7 (chloroquine-sensitive); test: Anti-malarial activity, P. falciparum 3D7 culture, 72 hour, DNA content by flow cytometry; conditions: synchronized ring-stage parasites
Protocol: Numerous compounds were screened in cultures of the malaria parasite P. falciparum 3D7 (chloroquine-sensitive) and DD2 (chloroquine-resistant). The compounds were also screened for toxixcity against 3T3 cells, HepG2 cells, and in a hemolysis assay. In brief, P. falciparum parasites were cultured in RPMI 1640 (Invitrogen) supplemented with Albumax II (Invitrogen). For synchronization, schizont stage parasites were magnet purified using a SuperMACS™ II Cell Separation Unit (Miltenyi Biotech). For IC50 determinations, synchronized ring-stage parasites were plated at 0.5% parasitemia and 8% hematocrit in 96-well plates at a total volume of 50 μL. Serial dilutions of 2× concentration of the respective compound, ranging from 2.5 μM to 20 nM, were added to the wells to bring the total volume up to 100 μL and 4% hematocrit. Compounds were assayed for a 72 hour period, after which the cultures were fixed with a solution of 4% paraformaldehyde and 0.08% glutaraldhyde in PBS. The cells were then permeabilized with 0.25% Triton X-100, and SYTOX Green Nucleic Acid Stain (Invitrogen) in PBS was added to a final concentration of 5 μM. DNA content, as an indicator of parasitemia, was analyzed on an Accuri C6 Flow Cytometer with C-Sampler. IC50 curves were generated using GraphPad Prism (GraphPad Software).

in vitro = test: in vitro
[2] = Cytotoxicity against HepG2 cells; conditions: human, HepG2 cells; read-out: Cytotoxicity HepG2 EC50
[3] = Cytotoxicity against 3T3 cells; conditions: mouse, 3T3 cells; read-out: Cytotoxicity 3T3 EC50
[4] = Plasmodium falciparum, 3D7, 72 h

IC50 [1] [µM] | IC50 [1, 4] [µM] | EC50 (in vitro) [µg/mL] | SMILES | EC50 (HepG2 cells) [µM] | EC50 (3T3 cells) [µM] | EC50 [2] [µM] | EC50 [3] [µM]
0.226 |  |  | N=C(N)NCCCOc1cc(OCCCNC(=N)N)c(-c2cccc(F)c2)cc1-c1cccc(F)c1 [Compound 138] | 85 | 78 |  | 
0.116 |  |  | N=C(N)NCCCOc1cccc(-c2cncc(-c3cccc(OCCCNC(=N)N)c3)c2)c1 [Compound 133] | 551 | 295 |  | 
0.32 |  |  | N=C(N)NCCc1cccc(NC(=O)Nc2cccc(CCNC(=N)N)c2)c1 [Compound 269] | > 1000 | > 1000 |  | 
0.059 |  |  | N=C(N)NCCc1cccc(-c2cn(-c3cccc(CCNC(=N)N)c3)nn2)c1 [Compound 256] | > 1000 | > 1000 |  | 
0.131 |  |  | N=C(N)NCCCc1cccc(-c2cc(-c3cccc(CCCNC(=N)N)c3)ncn2)c1 [Compound 135] | 697 | 623 |  | 
0.286 |  |  | N=C(N)NCCCCCC(=O)Nc1cc(C(F)(F)F)cc(NC(=O)c2cc(C(=O)Nc3cc(C(F)(F)F)cc(NC(=O)CCCCCNC(=N)N)c3SCCN)ncn2)c1SCCN [Compound 106] | 89 | 79 |  | 
0.738 |  |  | CCN(CC)CCN(CCN)c1c(F)cc(C(F)(F)F)cc1NC(=O)Nc1cc(C(F)(F)F)cc(F)c1N(CCN)CCN(CC)CC [Compound 127] | 413 | 132 |  | 
0.038 |  |  | N=C(N)NCCSc1ccc(NC(=O)Nc2ccc(OC3CCN(C(=N)N)C3)c(C(F)(F)F)c2)cc1C(F)(F)F (stereo not shown) [Compound 272] | 214 | 65 |  | 
0.058 |  |  | N=C(N)NCCc1cccc(-c2cnc(-c3cccc(CCNC(=N)N)c3)s2)c1 [Compound 243] | 723 | 523 |  | 
0.121 |  |  | N=C(N)NCCc1cccc(-c2ccc(-c3cccc(CCNC(=N)N)c3)o2)c1 [Compound 240] | 904 | 461 |  | 
0.369 |  |  | N=C(N)NCCc1cccc(-c2cncc(-c3ccc(-c4cncc(-c5cccc(CCNC(=N)N)c5)c4)cc3)c2)c1 [Compound 231] | > 1000 | 998 |  | 
0.225 |  |  | N=C(N)NCCCCC(=O)Nc1cc(F)cc(NC(=O)c2cc(C(=O)Nc3cc(F)cc(NC(=O)CCCCNC(=N)N)c3SCCN)ncn2)c1SCCN [Compound 105] | 81 | 44 |  | 
0.149 |  |  | N=C(N)NCCCOc1cccc(-c2ccc(-c3cccc(OCCCNC(=N)N)c3)s2)c1 [Compound 244] | 19 | 20 |  | 
0.029 |  |  | Cn1c(-c2ccc(CCCNC(=N)N)cc2)cnc1-c1ccc(CCCNC(=N)N)cc1 [Compound 267] | 823 | 651 |  | 
0.102 |  |  | N=C(N)NCCc1cccc(-c2ccc(-c3cccc(CCNC(=N)N)c3)cc2)c1 [Compound 239] | 288 | 149 |  | 
0.012 |  |  | N=C(N)NCCc1ccccc1-c1ccc(-c2ccccc2CCNC(=N)N)s1 [Compound 251] | 692 | 559 |  | 
> 0.1 |  |  | NCCSc1c(NC(=O)c2cc(C(=O)Nc3cc(C(F)(F)F)cc(NC(=O)c4cccs4)c3SCCN)ncn2)cc(C(F)(F)F)cc1NC(=O)c1cccs1 [Compound 311] | 923 | 923 |  | 
0.066 |  |  | O=C(Nc1ccc(OC2CCNC2)c(F)c1)c1cc(C(=O)Nc2ccc(OC3CCNC3)c(F)c2)ncn1 (stereo not shown) [Compound 209] | 516 | 431 |  | 
1.7 |  |  | N=C(N)NCCSc1ccc(NC(=O)Nc2ccc(SCCCN)c(C(F)(F)F)c2)cc1C(F)(F)F [Compound 275] | 342 | 124 |  | 
0.109 |  |  | N=C(N)NCCc1cccc(-c2ccc(-c3cccc(CCNC(=N)N)c3)s2)c1 [Compound 238] | 310 | 108 |  | 
 | > 0.1 | 251 (≈ 292 µM) | N#Cc1cccc(C(=O)Nc2cc(NC(=O)c3cc(C(=O)Nc4cc(NC(=O)c5cccc(C#N)c5)cc(C(F)(F)F)c4)c(OCCN)cc3OCCN)cc(C(F)(F)F)c2)c1 [Compound 299] |  |  | 920 | 920
 | 0.737 | 2 (≈ 3.4 µM) | N=C(N)NCCCc1cccc(-c2cncc(-c3ccc(-c4cncc(-c5cccc(CCCNC(=N)N)c5)c4)s3)c2)c1 [Compound 233] |  |  | 88 | 61
 | 0.029 | < 1 | COc1cc(SCCN)c(C(F)(F)F)cc1NC(=O)c1cc(C(=O)Nc2cc(C(F)(F)F)c(SCCN)cc2OC)ncn1 [Compound 301] |  |  | 778 | 716
 | 0.08 | > 1000 | N=C(N)NCCc1cccc(-c2cc(-c3cccc(CCNC(=N)N)c3)ncn2)c1 [Compound 221] |  |  | > 1000 | > 1000

The remaining lines, values behind:

SMILES | IC50 [1] [µM] | IC50 [1, 4] [µM] | EC50 (in vitro) [µg/mL] | EC50 (HepG2 cells) [µM] | EC50 (3T3 cells) [µM] | EC50 [2] [µM] | EC50 [3] [µM]
CN(C)C1CCN(c2ccc3sc4ccc(N5CCC(N(C)C)CC5)cc4c3c2)CC1 [Compound 297] |  |  |  | 675 | 518 |  | 
NCCc1cccc(-c2cncc(-c3ccc(-c4cncc(-c5cccc(CCN)c5)c4)s3)c2)c1 [Compound 223] | 0.516 |  |  | 82 | 18 |  | 
N=C(N)NCCCn1c2ccc(C3=CCN(C(=N)N)CC3)cc2c2cc(C3=CCN(C(=N)N)CC3)ccc21 [Compound 289] | > 0.1 |  |  | 425 | 248 |  | 
CCn1c2ccc(C3CCNCC3)cc2c2cc(C3CCNCC3)ccc21 [Compound 283] | > 0.1 |  |  | 284 | 153 |  | 
c1cc2sc3ccc(NC4CCNCC4)cc3c2cc1NC1CCNCC1 [Compound 295] |  |  |  | > 1000 | > 1000 |  | 
NCCSc1c(NC(=O)c2cccnc2)cc(C(F)(F)F)cc1NC(=O)c1cc(C(=O)Nc2cc(C(F)(F)F)cc(NC(=O)c3cccnc3)c2SCCN)ncn1 [Compound 315] |  |  |  | 34 | 21 |  | 
N=C(N)N1CCC(Oc2ccc(NC(=O)Nc3ccc(OC4CCN(C(=N)N)C4)c(C(F)(F)F)c3)cc2C(F)(F)F)C1 (stereo not shown) [Compound 271] | 0.029 |  |  | 347 | 172 |  | 
CCn1c2ccc(C3=CCNCC3)cc2c2cc(C3=CCNCC3)ccc21 [Compound 282] | > 0.1 |  |  | 126 | 57 |  | 
NCCCOc1cccc(-c2cncc(-c3ccc(-c4cncc(-c5cccc(OCCCN)c5)c4)s3)c2)c1 [Compound 225] | 0.461 |  |  | 179 | 35 |  | 
O=C(Nc1ccc(O[C@@H]2CCNC2)c(C(F)(F)F)c1)c1cc(C(=O)Nc2ccc(O[C@@H]3CCNC3)c(C(F)(F)F)c2)ncn1 [Compound 187] | 0.041 |  |  | 130 | 42 |  | 
CCn1c2ccc(N3CCNCC3)cc2c2cc(N3CCNCC3)ccc21 [Compound 293] | > 0.1 |  |  | > 1000 | 469 |  | 
NCCc1cccc(-c2ccc(-c3cccc(CCN)c3)cc2)c1 [Compound 235] | > 2 |  |  | 156 | 14 |  | 
CCn1c2ccc(C3CCN(C(=N)N)CC3)cc2c2cc(C3CCN(C(=N)N)CC3)ccc21 [Compound 285] | 0.086 |  |  | 815 | 587 |  | 
CCN(CC)CCN(CCN)c1ccc(C(F)(F)F)cc1NC(=O)Nc1cc(C(F)(F)F)ccc1N(CCN)CCN(CC)CC [Compound 126] | 0.66 |  |  | 562 | 140 |  | 
CCn1c2ccc(N3CCC(N(C)C)CC3)cc2c2cc(N3CCC(N(C)C)CC3)ccc21 [Compound 298] |  |  |  | > 1000 | > 1000 |  | 
NCCc1cccc(-c2cn(-c3cccc(CCN)c3)nn2)c1 [Compound 250] | 0.556 |  |  | > 1000 | > 1000 |  | 
NCCc1ccc(-c2ccc(-c3ccc(CCN)cc3)s2)cc1 [Compound 247] | 0.034 |  |  | 74 | < 14 |  | 
O=C(Nc1ccc(SCCNC2=NCCN2)c(C(F)(F)F)c1)Nc1ccc(SCCNC2=NCCN2)c(C(F)(F)F)c1 [Compound 268] | 0.087 |  |  | 447 | 74 |  | 
c1cc2sc3ccc(N4CCNCC4)cc3c2cc1N1CCNCC1 [Compound 291] | > 0.1 |  |  | 410 | 345 |  | 
C[N+]1(C)CCN(c2ccc(-c3ccc(-c4ccc(N5CC[N+](C)(C)CC5)cc4)o3)cc2)CC1 [Compound 264] |  |  |  | > 1000 | > 1000 |  | 
NCCCc1ccc(-c2ccc(-c3ccc(CCCN)cc3)s2)cc1 [Compound 263] |  |  |  | 1 | 6 |  | 
c1cc(N2CCNCC2)ccc1-c1ccc(-c2ccc(N3CCNCC3)cc2)s1 [Compound 252] |  | 0.004 | 12 (≈ 29.7 µM) |  |  | > 1000 | > 1000
Cn1c(-c2ccc(N3CCN(C(=N)N)CC3)cc2)cnc1-c1ccc(N2CCN(C(=N)N)CC2)cc1 [Compound 261] |  | 0.078 | > 1000 |  |  | 932 | > 1000
Cn1c(-c2ccc(N3CCNCC3)cc2)cnc1-c1ccc(N2CCNCC2)cc1 [Compound 259] |  | > 0.1 | 287 (≈ 713 µM) |  |  | > 1000 | > 1000
